Measured values published in ChEMBL document CHEMBL1201862, “PubChem BioAssay data set” (2004).
Counter-ions that a name gives are not always drawn. Calls of active or inactive are those of the source.

Legend:
[1] = molecular target: Glyceraldehyde-3-phosphate dehydrogenase (Homo sapiens, UniProt P04406)
Bcl-2-related protein A1 [2] = molecular target: T1, Bcl-2-related protein A1 (Mus musculus, UniProt Q07440); experiment: Bfl-1 inhibitors blocking BH3 peptide binding, confirmation, biochemical, TR-FRET, mouse Bfl-1 (AID 621);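 also: TR-FRET binding of GST-Bfl-1 to FITC-labelled Bid peptide via terbium antibody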
T1 sequence (Q07440 whole entry): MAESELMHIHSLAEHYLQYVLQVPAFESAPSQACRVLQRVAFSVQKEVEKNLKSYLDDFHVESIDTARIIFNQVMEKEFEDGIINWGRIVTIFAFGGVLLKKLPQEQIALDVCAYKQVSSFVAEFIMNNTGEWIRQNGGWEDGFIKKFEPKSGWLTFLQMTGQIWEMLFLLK

Bcl-2-related protein A1 [3] = molecular target: T1, Bcl-2-related protein A1; experiment: Bfl-1 binding inhibitors, SAR follow-up, biochemical, fluorescence polarization (AID 1070)
Estrogen receptor beta [4] = molecular target: T2, Estrogen receptor beta (Homo sapiens, UniProt Q92731);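 also: recombinant ER-beta bound to coactivator SRC1 peptide in presence of estradiol agonist; inhibitors block coactivator peptide binding and lower the FRET signal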
[5] = Luminescence-based cell-based high throughput dose response assay to identify activators of the DAF-12 from the parasite S. stercoralis (ssDAF-12).; format: functional
[6] = molecular target: T3, Oxysterols receptor LXR-beta (Homo sapiens, UniProt P55055); experiment: LXR agonists, Gal4 luciferase reporter, dose response, counter-screen for ssDAF-12 agonist project, cell-based, luminescence, HEK293, S. stercoralis campaign (AID 720737); format: functional; conditions: read-out: IC50 (the source's name)
T3 sequence (P55055 whole entry): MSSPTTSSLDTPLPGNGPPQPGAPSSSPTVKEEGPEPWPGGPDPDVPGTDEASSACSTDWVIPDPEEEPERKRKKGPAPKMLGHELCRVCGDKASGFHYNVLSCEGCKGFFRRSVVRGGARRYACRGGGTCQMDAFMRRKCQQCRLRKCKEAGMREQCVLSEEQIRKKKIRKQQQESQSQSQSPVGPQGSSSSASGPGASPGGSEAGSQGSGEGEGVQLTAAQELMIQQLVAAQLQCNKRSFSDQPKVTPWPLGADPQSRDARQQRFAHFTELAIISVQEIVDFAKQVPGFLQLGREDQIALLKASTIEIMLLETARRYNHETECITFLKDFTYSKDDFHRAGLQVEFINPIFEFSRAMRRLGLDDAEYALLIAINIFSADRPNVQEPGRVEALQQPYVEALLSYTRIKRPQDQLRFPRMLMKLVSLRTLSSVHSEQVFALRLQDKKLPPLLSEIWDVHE

[7] = inhibitors of intracellular T. cruzi replication, confirmation, NIH3T3 host cells, beta-gal luminescence (AID 2044); format: functional, cell-based;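 also: intracellular parasites grown in NIH/3T3 mouse fibroblasts as host cells; luminescent beta-galactosidase reporter signal from transgenic T. cruzi replicating inside host cells; inhibitors lower the luminescence signal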
[8] = cytotoxicity toward NIH3T3 fibroblasts, dose response, counter-screen, cell-based, ATP luminescence, mouse fibroblasts (AID 2010); format: functional;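 also: cells exposed to compound for about 90 hours before reading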
[9] = molecular target: FAD-linked sulfhydryl oxidase ALR (Homo sapiens, UniProt P55789); experiment: inhibitors of human ALR sulfhydryl oxidase, dose response, biochemical, H2O2 detection, luminescence, cherry-pick (AID 493248)
[10] = molecular target: T4, DNA repair protein RAD52 homolog (Homo sapiens, UniProt P43351); format: functional, biochemical
T4 sequence (P43351 whole entry): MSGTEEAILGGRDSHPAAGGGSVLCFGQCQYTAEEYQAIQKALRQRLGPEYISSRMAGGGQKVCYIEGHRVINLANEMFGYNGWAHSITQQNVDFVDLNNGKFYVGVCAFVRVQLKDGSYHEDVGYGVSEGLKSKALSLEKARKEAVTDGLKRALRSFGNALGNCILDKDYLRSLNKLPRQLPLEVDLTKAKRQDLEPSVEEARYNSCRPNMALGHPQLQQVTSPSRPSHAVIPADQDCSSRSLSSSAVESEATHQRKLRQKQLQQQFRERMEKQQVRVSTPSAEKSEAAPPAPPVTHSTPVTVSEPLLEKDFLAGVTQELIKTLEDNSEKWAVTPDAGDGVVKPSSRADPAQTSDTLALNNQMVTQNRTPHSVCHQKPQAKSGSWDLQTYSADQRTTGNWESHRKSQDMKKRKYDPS

[11] = THP-1 cell cytotoxicity, dose response, cytotoxicity control for Vif-APOBEC3G degradation inhibitor project, THP-1 cells (AID 1117359); format: functional; conditions: Human immunodeficiency virus 1, THP-1
[12] = molecular target: T5, Glutathione-S-transferase (Schistosoma japonicum, UniProt Q26513); experiment: biotin-GST/anti-GST TR-FRET signal inhibitors, dose response, artefact control for Vif-APOBEC3G degradation inhibitor project, biochemical (AID 1117362); format: functional
T5 sequence (Q26513 whole entry): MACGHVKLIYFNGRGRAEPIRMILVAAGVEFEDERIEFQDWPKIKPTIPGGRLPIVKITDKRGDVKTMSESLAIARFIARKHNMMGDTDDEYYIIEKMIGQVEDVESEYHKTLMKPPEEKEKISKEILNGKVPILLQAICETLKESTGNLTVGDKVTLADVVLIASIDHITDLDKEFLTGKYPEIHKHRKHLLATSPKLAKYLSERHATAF

[13] = molecular target: Voltage-gated inwardly rectifying potassium channel KCNH2 (Homo sapiens, UniProt Q12809); experiment: hERG protection from proarrhythmic block, potency, dose response, cell-based, thallium flux (AID 2121); format: ADME
Protein Tat = molecular target: T6, Protein Tat (Human immunodeficiency virus type 1 group M subtype B (isolate HXB2)(HIV-1), UniProt P04608); format: functional;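 also: tat binding to TAR RNA read out by fluorescence polarization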
T6 sequence (P04608 whole entry): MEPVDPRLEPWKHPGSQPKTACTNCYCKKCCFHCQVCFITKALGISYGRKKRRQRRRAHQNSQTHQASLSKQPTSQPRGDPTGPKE

Estrogen receptor beta [14] = molecular target: T2, Estrogen receptor beta; experiment: ERβ–SRC-3 coactivator interaction inhibitors, confirmation, orthogonal assay, biochemical, ELISA, streptavidin-HRP readout (AID 1060)
[15] = molecular target: T7, Carboxy-terminal domain RNA polymerase II polypeptide A small phosphatase 1 (Homo sapiens, UniProt Q9GZU7); experiment: inhibitors of CTDSP1, concentration-response testing, biochemical assay, absorbance-based, actives from ultra-high-throughput screening (AID 540297); format: functional
T7 sequence (Q9GZU7 whole entry): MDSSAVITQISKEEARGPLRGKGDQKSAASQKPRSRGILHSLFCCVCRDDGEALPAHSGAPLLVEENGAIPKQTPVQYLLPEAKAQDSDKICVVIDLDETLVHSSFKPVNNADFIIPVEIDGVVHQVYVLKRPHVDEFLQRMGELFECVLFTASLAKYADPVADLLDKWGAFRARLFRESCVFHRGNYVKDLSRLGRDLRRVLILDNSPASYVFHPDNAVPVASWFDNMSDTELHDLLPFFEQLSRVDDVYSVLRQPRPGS

[16] = half-maximal inhibitory concentration for glucagon-like peptide-1 release, STC-1 cell line, dose-response (AID 1117345); format: functional, cell-based
[17] = Glucagon-like peptide 1 release potency, NCI-H716 cell line, dose-response, half-maximal inhibitory concentration (AID 1117344); format: functional, cell-based
[18] = inhibitors of firefly luciferase expression or activity, dose response, H4 neuroglioma cells, luminescence (AID 1990); format: functional, cell-based
[19] = Luminescence Cell-Based Dose Response HTS to Identify Inhibitors of 5'UTR Stem-Loop Driven Prion Protein mRNA Translation in H4 Neuroglioblastoma Cells. [Related pubchem assays: 1827 (Project Summary), 1813 (Primary HTS)]; format: functional
[20] = inhibitors of SNCA 5'UTR-driven reporter translation, confirmation, H4 neuroglioma cells, luminescence (AID 1988); format: functional, cell-based
[21] = microbe, parasite or virus in culture; format: functional; conditions: Mycobacterium tuberculosis
[22] = growth suppression of PTEN-null colon cells, dose response, cell-based, HCT116 PTEN knockout (AID 1047); format: functional;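 also: HCT116 colon tumor cells with PTEN knocked out; cells exposed to compound for 60 hours before readout; potency for loss of cell viability measured by luminescence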
[23] = growth suppression of beta-catenin-knockout colon cells, dose response, cell-based, HCT116, human colon tumor (AID 1045); format: functional;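 also: HCT116 colon tumor cells with beta catenin knocked out; cells exposed to compound for 60 hours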
[24] = molecular target: T8, Ubiquitin-conjugating enzyme E2 N (Homo sapiens, UniProt P61088); format: functional;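 also: Dose-response confirmation in a TR-FRET assay detecting UBC13-driven polyubiquitin chain formation, inhibition measured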
T8 sequence (P61088 whole entry): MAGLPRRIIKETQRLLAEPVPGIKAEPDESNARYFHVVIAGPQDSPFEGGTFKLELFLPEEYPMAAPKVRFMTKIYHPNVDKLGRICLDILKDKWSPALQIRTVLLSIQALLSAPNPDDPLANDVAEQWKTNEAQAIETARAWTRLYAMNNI

INS1 = experiment: beta cell apoptosis inhibitors, cytokine rescue, dose response, luminescence, retest (AID 449756); format: functional, cell-based; conditions: Rattus norvegicus;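 also: cell death triggered by IL-1 beta plus TNF-alpha plus IFN-gamma mixture; protective hits raise ATP signal compared with cytokine alone wells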
[25] = Shn3 3'UTR reporter inhibitors, dose response, cell-based, Clone20 osteoblasts, firefly luciferase, cherry-picked (AID 624132); format: functional;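 also: firefly luciferase luminescence from reporter carrying the Shn3 3'UTR in osteoblasts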
[26] = HepG2 cell cytotoxicity, dose response, cytotoxicity control for Shn3 inhibitor project, CellTiter-Glo, cherry-picked (AID 624134); format: functional, cell-based
[27] = control 3'UTR Renilla luciferase suppression, dose response, counter-screen for Shn3 inhibitor project, cell-based, Clone20-Shn3RL, cherry-picked (AID 624133); format: functional
[28] = molecular target: Heat shock protein HSP 90-alpha (Homo sapiens, UniProt P07900); format: functional, organism-based
[29] = molecular target: T9, Aryl hydrocarbon receptor (Homo sapiens, UniProt P35869); conditions: Potency;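 also: confirmatory quantitative high-throughput screen measuring activation of the AhR signaling pathway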
T9 sequence (P35869 whole entry): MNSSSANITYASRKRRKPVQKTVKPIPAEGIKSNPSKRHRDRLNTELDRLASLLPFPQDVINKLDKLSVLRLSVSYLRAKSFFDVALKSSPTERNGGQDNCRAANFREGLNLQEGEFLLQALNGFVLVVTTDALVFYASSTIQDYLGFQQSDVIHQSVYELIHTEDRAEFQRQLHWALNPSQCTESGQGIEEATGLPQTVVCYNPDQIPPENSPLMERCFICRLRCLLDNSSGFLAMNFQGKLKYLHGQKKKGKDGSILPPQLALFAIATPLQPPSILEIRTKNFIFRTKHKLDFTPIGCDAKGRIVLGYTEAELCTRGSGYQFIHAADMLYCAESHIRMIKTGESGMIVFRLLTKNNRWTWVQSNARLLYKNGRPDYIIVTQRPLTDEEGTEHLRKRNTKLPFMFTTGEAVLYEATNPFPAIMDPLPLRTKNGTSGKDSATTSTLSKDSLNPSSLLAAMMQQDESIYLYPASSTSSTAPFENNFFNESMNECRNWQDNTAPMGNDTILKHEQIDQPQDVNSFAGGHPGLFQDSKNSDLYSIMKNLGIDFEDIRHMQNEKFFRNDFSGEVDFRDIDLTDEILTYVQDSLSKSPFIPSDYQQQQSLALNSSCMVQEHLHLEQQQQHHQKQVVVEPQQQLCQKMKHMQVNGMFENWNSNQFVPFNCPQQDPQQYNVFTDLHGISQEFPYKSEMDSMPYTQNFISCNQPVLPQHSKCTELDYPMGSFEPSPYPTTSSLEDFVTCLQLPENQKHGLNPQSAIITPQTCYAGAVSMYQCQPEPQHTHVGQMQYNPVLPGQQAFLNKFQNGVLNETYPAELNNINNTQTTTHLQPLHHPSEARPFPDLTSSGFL

Escherichia coli [30] = experiment: microbe, parasite or virus in culture
Escherichia coli [31] = experiment: microbe, parasite or virus in culture; remark: listed apart in the source

T2 sequence (Q92731 whole entry): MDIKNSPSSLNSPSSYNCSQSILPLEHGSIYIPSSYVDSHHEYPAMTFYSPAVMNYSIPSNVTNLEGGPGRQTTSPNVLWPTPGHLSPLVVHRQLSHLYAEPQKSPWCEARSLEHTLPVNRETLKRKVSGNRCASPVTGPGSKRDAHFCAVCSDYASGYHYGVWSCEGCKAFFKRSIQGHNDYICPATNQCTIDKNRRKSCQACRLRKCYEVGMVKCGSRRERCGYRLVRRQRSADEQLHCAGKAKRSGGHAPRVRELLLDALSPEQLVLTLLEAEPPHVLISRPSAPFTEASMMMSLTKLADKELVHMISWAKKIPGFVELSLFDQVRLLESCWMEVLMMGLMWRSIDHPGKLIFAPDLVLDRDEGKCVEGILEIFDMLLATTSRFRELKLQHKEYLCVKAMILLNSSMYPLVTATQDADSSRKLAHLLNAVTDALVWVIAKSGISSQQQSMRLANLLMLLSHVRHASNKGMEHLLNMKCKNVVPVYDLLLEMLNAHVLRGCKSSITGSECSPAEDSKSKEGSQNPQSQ
Chain of Voltage-gated inwardly rectifying potassium channel KCNH2 (Q12809 whole entry): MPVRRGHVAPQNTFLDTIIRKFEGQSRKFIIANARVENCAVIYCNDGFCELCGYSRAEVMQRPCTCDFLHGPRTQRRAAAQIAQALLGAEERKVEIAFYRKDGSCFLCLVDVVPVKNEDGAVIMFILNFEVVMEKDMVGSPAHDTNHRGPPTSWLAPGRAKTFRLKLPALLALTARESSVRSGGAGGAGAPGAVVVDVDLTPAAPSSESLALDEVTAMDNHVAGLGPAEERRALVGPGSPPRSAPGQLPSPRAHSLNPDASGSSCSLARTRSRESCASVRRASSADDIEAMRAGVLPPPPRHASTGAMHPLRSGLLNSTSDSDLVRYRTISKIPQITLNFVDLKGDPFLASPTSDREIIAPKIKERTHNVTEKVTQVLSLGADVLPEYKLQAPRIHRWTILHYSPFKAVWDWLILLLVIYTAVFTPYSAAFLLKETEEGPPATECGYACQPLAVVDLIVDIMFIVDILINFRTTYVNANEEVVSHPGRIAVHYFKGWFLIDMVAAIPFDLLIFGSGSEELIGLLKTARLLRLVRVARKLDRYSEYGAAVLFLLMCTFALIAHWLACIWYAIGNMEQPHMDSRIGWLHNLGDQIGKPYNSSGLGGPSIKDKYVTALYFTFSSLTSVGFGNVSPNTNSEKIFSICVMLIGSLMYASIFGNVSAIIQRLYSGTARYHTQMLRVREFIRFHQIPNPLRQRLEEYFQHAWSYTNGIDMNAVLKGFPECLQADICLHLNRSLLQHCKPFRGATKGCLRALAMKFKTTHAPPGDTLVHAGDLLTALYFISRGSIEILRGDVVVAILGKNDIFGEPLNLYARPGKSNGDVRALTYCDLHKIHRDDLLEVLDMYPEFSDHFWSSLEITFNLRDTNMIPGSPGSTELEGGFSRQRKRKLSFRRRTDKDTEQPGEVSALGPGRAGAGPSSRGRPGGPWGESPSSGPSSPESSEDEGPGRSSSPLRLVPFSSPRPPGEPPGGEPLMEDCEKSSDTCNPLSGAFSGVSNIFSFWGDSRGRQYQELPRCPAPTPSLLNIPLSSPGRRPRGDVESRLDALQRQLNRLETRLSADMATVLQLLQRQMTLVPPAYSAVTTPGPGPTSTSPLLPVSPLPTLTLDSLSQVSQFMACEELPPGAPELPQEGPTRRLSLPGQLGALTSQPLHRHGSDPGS
Chain of Glyceraldehyde-3-phosphate dehydrogenase (P04406 whole entry): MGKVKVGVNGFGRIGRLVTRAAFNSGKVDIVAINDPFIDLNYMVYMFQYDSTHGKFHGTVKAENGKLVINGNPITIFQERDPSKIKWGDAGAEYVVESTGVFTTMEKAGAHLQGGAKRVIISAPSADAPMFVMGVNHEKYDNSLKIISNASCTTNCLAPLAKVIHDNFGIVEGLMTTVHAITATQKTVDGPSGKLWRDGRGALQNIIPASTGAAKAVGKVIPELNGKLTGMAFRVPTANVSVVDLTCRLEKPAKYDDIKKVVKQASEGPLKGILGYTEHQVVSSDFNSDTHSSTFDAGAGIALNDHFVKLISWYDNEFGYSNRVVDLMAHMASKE
Chain of FAD-linked sulfhydryl oxidase ALR (P55789 whole entry): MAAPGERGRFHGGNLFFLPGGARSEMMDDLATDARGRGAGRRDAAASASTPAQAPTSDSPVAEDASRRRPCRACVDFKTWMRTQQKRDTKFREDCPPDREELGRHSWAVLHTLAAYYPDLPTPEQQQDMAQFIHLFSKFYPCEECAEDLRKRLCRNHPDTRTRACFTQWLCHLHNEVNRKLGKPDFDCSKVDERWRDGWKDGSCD

O=C1C(Cl)=C(N2CCN(CCO)CC2)C(=O)N1c1ccc(Cl)c(Cl)c1
IC50 [1]: > 100 µM (not active)
IC50 (Bcl-2-related protein A1 [2]): 0.59 µM (active)
IC50 (Bcl-2-related protein A1 [3]): 0.556 µM (active)

CCSc1nnc(Cc2cc(=O)[nH]c(=O)[nH]2)n1-c1cc(C)ccc1C
IC50 (Estrogen receptor beta [4]): > 50 µM (not active)

C=CCn1c(COc2ccc(OC)cc2)nnc1SCn1nnc2ccccc2c1=O
IC50 [5]: > 67.6 µM (inactive)
EC50 [6]: > 67.6 µM (inactive)

CC1(C)CC(Nc2ccc(Nc3ccccc3)cc2)CC(C)(C)N1
EC50 [7]: 4.14 µM (active)
EC50 [8]: > 60 µM (not active)
AC50 [9]: 0.27 µM (active)
AC50 [10]: 13.9 µM (active)
CC50 [11]: > 40 µM (active)
IC50 [12]: 64.5 µM (active)

CCOC(=O)Cc1csc(NC(=S)NC(=O)C(C)(C)C)n1
EC50 [13]: 2.51 µM (active)

CC1CN(C(=S)NC(=O)c2ccc(Cl)cc2)CC(C)O1 (stereo not given)
EC50 [13]: 5.66 µM (active)

CC1(C)Cc2nc3sc4c(SCC(=O)NCc5ccco5)ncnc4c3cc2CO1
IC50 (Protein Tat): > 100 µM (active)

Cc1ccccc1N1CCN(C2=C(Cl)C(=O)N(c3ccc(Cl)c(Cl)c3)C2=O)CC1
IC50 [1]: > 100 µM (not active)
IC50 (Bcl-2-related protein A1 [2]): > 100 µM (not active)
IC50 (Bcl-2-related protein A1 [3]): > 100 µM (not active)

O=C(Cc1cccs1)Nc1ccc(S(=O)(=O)N2CCCCC2)cc1
IC50 (Estrogen receptor beta [4]): 2.71 µM (active)
IC50 (Estrogen receptor beta [14]): < 77 µM (not active)
IC50 [15]: 4.95 µM (active)

O=C(COc1ccc(Cl)cc1Cl)NC(=S)N1CCCc2ccccc21
EC50 [13]: 4.06 µM (active)

Cc1nn(Cc2ccccc2)c(Cl)c1/C=N/NC(=O)c1cccnc1
IC50 [5]: > 67.5 µM (inactive)
EC50 [6]: > 67.5 µM (inactive)

C[C@@H](NCCCc1cccc(C(F)(F)F)c1)c1cccc2ccccc12 [CINACALCET HYDROCHLORIDE]
IC50 [16]: > 40 µM (inactive)
IC50 [17]: 17.2 µM (inactive)

CC(C)(C)c1ccc(C(O)CCCN2CCC(C(O)(c3ccccc3)c3ccccc3)CC2)cc1 (stereo not given) [TERFENADINE]
EC50 [18]: > 120 µM (not active)
EC50 [19]: 6.46 µM (active)
EC50 [20]: 4.26 µM (active)
CC50 [21]: 9.24 µM (active)
EC50 [22]: 4.43 µM (active)
EC50 [23]: 4.55 µM (active)
IC50 [24]: > 20 µM (inactive)
AC50 (INS1): 8.13 µM (active)
AC50 [25]: 16.7 µM (active)
AC50 [26]: 11.4 µM (active)
AC50 [27]: 12.9 µM (active)
IC50 [16]: > 40 µM (inactive)
IC50 [17]: 20.5 µM (inactive)

Oc1cc(Cl)ccc1Oc1ccc(Cl)cc1Cl [TRICLOSAN]
AC50 [28]: 7.85 µM (active)
IC50 [16]: 2.55 µM (active)
IC50 [17]: 21.3 µM (inactive)
AC50 [29]: 70.8 µM (inconclusive)
AC50 (Escherichia coli [30]): 0.329 µM (active)
AC50 (Escherichia coli [31]): 1.06 µM (active)
